Measured values taken from patent US20250051724A1, “MEDIUM COMPOSITION FOR CULTURING PORCINE PLURIPOTENT STEM CELLS” (SPACE F CORPORATION, priority 2022, published 2025).

Tests used:
Type in all cases: cell-based
[1] = test system: porcine embryonic stem cells; conditions: for proportion of cells undergoing cell division / proliferation rate as the concentration increased (Ki-67): various concentrations in LDN-193189-containing medium
[2] = test system: porcine embryonic stem cells
[3] = test system: porcine embryonic stem cells; remark: listed apart in the source
Procedure: To analyze the effect of LDN-193189, which is an ALK2/3 inhibitor, on feeder cell-free culture of porcine embryonic stem cells, LDN-193189 cytotoxicity was confirmed through annexin V staining (FIG. 1). […] In addition, treatment at a concentration of 1000 nM or more for 24 hours or more induced apoptosis of most cells.
To confirm the optimal concentration of “FF-embryonic stem cell culture medium” containing LDN-193189 from 100 nM to 1000 nM, the concentration was subdivided and annexin V staining was performed (FIG. 3A). […] In fact, LDN-193189 is known to inhibit the activin A signaling system involved in stem cell proliferation at high concentrations.

[4] = test system: porcine embryonic stem cells; assay: qPCR gene expression analysis in feeder cell-free culture; conditions: LDN-193189 250 nM, cultured without feeder cells
Procedure: To analyze the expression level of pluripotency-related genes, differentiation-related genes, and the like depending on the culture period, porcine embryonic stem cells were cultured using “FF-embryonic stem cell culture medium” containing 100 nM LDN-193189 (ff-ESCs^LDN+) and “FF-embryonic stem cell culture medium” not containing LDN-193189 (ff-ESCs^LDN−), without feeder cells, and porcine embryonic stem cells were cultured as a control using the aforementioned embryonic stem cell culture medium along with feeder cells (control ESCs).
The cells were obtained on days 2, 4 and 6 after plating using each medium. Total RNA was extracted using TRIzol reagent (Invitrogen, Carlsbad, USA) and cDNA was synthesized using High-Capacity RNA-to-cDNA Kit (Applied Biosystems, Foster City, USA). cDNA was amplified using the DyNAmo HS SYBR Green qPCR kit (Thermo Fisher Scientific, Waltham, USA) with the primer sets listed in Table 1.
In addition, as shown in C and D of FIG. 2, the effect of treatment with LDN-193189 (250 nM), which is an inhibitor of the SMAD1/5 signaling system, on feeder cell-free culture of porcine embryonic stem cells was confirmed.

[5] = test system: porcine embryonic stem cells; assay: immunological staining of NANOG and SSEA4 in culture medium containing FBS; conditions: culture medium in which KSR was replaced with FBS
Description: In addition, it was confirmed whether the substance helps maintain the pluripotency of porcine embryonic stem cells in a culture medium containing fetal bovine serum (FBS), rather than a serum replacement.
As a result of confirming the pluripotency markers NANOG and SSEA4 through immunological staining, the culture medium containing FBS induced differentiation of porcine embryonic stem cells, and many cell colonies with reduced expression of NANOG and SSEA4 were discovered.

[6] = test system: porcine embryonic stem cells; assay: qPCR analysis in culture medium containing FBS; conditions: environment containing FBS
[7] = test system: porcine embryonic stem cells grown on feeder cells; assay: pluripotency marker staining of cells grown on feeder cells
Description: The effect of medium for feeder cell-free culture containing LDN-193189 on porcine embryonic stem cells grown on feeder cells was confirmed.

[8] = test system: porcine embryonic stem cells grown on feeder cells; assay: qPCR analysis of cells grown on feeder cells
Description: Treatment with LDN-193189 reduced the spontaneous differentiation of porcine embryonic stem cells grown on feeder cells and enhanced the expression of the SSEA4 marker. This is presumed to be because it suppresses the SMAD1/5 signaling system involved in mesodermal differentiation and activates the SMAD2/3 signaling involved in the proliferation of stem cells. In addition, qPCR analysis confirmed that treatment with LDN-193189 reduced the expression of genes involved in the development of various mesodermal tissues.

Cc1c[nH]c(-c2cnc(NCCNc3ccc(C#N)cn3)nc2-c2ccc(Cl)cc2Cl)n1 [CHIR99021]
proportion of cells undergoing cell division / proliferation rate as the concentration increased (Ki-67) [1]: gradually decreased

FGF2: fibroblast growth factor 2 (hrFGF2, R&D Systems)
proportion of cells undergoing cell division / proliferation rate as the concentration increased (Ki-67) [1]: gradually increased | concentration at which cell activity decreased due to cytotoxicity (WST-8) [2]: ≥ 100 ng/mL

activin A: ActA (activin; activin A) (R&D Systems), cytokine in culture medium
concentration with decreased proliferation rate (Ki-67) [1]: ≥ 0.01 µg/mL | concentration at which cell activity decreased due to cytotoxicity (WST-8) [2]: ≥ 10 ng/mL

c1ccc2c(-c3cnn4cc(-c5ccc(N6CCNCC6)cc5)cnc34)ccnc2c1 [LDN-193189]
concentration with high cytotoxicity (annexin V staining) [3]: ≥ 1000 nM | expression of genes involved in pluripotency and mesodermal tissue development [4]: restored to the level when cultured on the feeder cells | Ki-67 staining result ([1]; from 100 nM to 1000 nM): no significant difference | final treatment concentration (maximum concentration that inhibits only the BMP signaling system and does not cause cytotoxicity) [2]: 100 nM | FBS-induced differentiation (colonies with reduced expression of NANOG and SSEA4) [5]: alleviated | expression of mesoderm-related genes (qPCR) [6]: reduced | expression of the SSEA4 marker [7]: enhanced | spontaneous differentiation [7]: reduced | expression of genes involved in the development of mesodermal tissues (qPCR) [8]: reduced

O=C(Nc1cccc2cccnc12)c1ccc(N2C(=O)[C@@H]3[C@H](C2=O)[C@@H]2C=C[C@H]3C2)cc1 [IWR-1]
proportion of cells undergoing cell division / proliferation rate as the concentration increased (Ki-67) [1]: gradually increased | cytotoxicity [2]: showed cytotoxicity at high concentrations | concentration showing the highest cellular activity ([2]; various concentrations): 0.5 µM
